The results in this text go back to patent US11034839B2, “Compounds, linked with haptens, for the detection of senescent cells” (THE UNIVERSITY OF MANCHESTER, priority 2016, dated 2021).

Molecules are shown by their SMILES.

Experiment [1] deals with senescent cells in biological systems with established senescence. Kind of experiment: Quantitative analysis and concordance of SA-b-gal, SBB and GL13 staining. Particulars: FIG. 15.
The test system of experiment [2] is senescent cells in irradiated human laryngeal tumors, palbociclib treated human melanoma cell xenografts, mouse bleomycin-injected lung, mouse lung adenomas. Kind of experiment: Streptavidin-HRP/DAB labeling of tissue sections. Particulars: FIG. 5ai-di in comparison to FIGS. 2,3,4. An excerpt:
In the inventive example 2, the derivative LG13 was used to detect senescent cells in tissue sections using streptavidin-horse radish peroxidase (HRP)/DAB labeling.
Tissue sections were obtained from paraffin embedded, formalin fixed: (a) irradiated human laryngeal tumors, (b) palbociclib treated human melanoma cell xenografts, (c) mouse bleomycin-injected lung and (d) mouse lung adenomas. Subsequently, they were immobilized on glass microscopy slides by standard procedures and processed as follows: • a. Deparaffinization for 5 min at room temperature in xylene • b. Gradual rehydration in solutions of descending concentration of ethanol (100%, 80%, 70%, 50% v/v) and finally in TBS (Tris-buffered saline) or PBS (Phosphate-buffered saline) solution. • c. Blocking of endogenous peroxidase activity with 3% H2O2 for 10 min. • d. Gradual dehydration of biopsy material in 50% (v/v) ethanol followed by 70% (v/v) ethanol for 5 min each step. • e. Application of the new compound LG13, linked with biotin, diluted in ethanol and filtered, on biopsy material for 10 min. • f. Quick wash in 50% (v/v) ethanol. • g. Transfer and wash in TBS or PBS solution. • h. Incubation in streptavidin-HRP (horse radish peroxidase) conjugated (dilution 1/200), for ½ hr at room temperature. • i. Quick wash in TBS or PBS solution. • j. […]

Turning to `CC1(COC(=O)CCCC[C@H]2SC[C@H]3NC(=O)N[C@H]32)Nc2cccc3c(/N=N/c4ccc(/N=N/c5ccccc5)c5ccccc45)ccc(c23)N1` (stereo partly drawn) [LG13, (2-methyl-6-((E)-(4-((E)-phenyldiazenyl)naphthalen-1-yl)diazenyl)-2,3-dihydro-1H-perimidin-2-yl)methyl 5-((3aR,4R,6aS)-2-oxohexahydro-1H-thieno[3,4-d]imidazol-4-yl)pentanoate], in experiment [1], the “specificity compared among SA-b-gal, SBB and GL13 staining” value is “concordance of specificity”. The “recognition of senescent cells compared to histochemical staining” value in experiment [2] is reported as “makes easier the recognition of senescent cells”.
